# Assay results from patent US20210270843A1, “Immune Monitoring of Neuro-Inflammatory Amyotrophic Lateral Sclerosis (ALS)” (RAPA THERAPEUTICS, LLC, priority 2018, published 2021).
# Where “and” joins values, the source holds several entries; their conditions need not be identical. Equal entries are not always repeated.
# B1: rhu CD40L: recombinant human (rhu) CD40L molecule (protein, UniProt P29965 113-261, looked up)
# CD40 ligand, soluble form: MQKGDQNPQIAAHVISEASSKTTSVLQWAEKGYYTMSNNLVTLENGKQLTVKRQGLYYIYAQVTFCSNREASSQAPFIASLCLKSPGRFERILLRAANTHSSAKPCGQQSIHLGGVFELQPGASVFVNVTDPSQVSHGTGFTSFGLLKL
# Legend:
# [1] = system: peripheral blood mononuclear cells from ALS patient; test: Autonomous cytokine secretion of ALS patient PBMC before and during etanercept therapy; assay type: in vivo, human; conditions: etanercept 50 mg per week s.c., PBMC incubated 24 hr without stimulation, similar on three values over three months
# Procedure: We have observed that ALS patients can manifest autonomous inflammatory cytokine secretion when incubation of T cell- and monocyte-containing inoculum occurs for 24 hours in X-Vivo 20 media supplemented only with 5% human serum (FIG. 3). FIG. 3 depicts ALS patient and normal control autonomous cytokine secretion. ALS patient (“ALS”) and normal control (“NC”) peripheral blood mononuclear cells were either not separated (FIG. 3, right panel; mixture of T cells and monocytes), or separated into CD14^+ monocyte cells (FIG. 3, left panel) or CD3^+ T cells (FIG. 3, middle panel). The cells were incubated for 24 hours in media without any stimulation additives. After 24 hours, the supernatant was harvested and tested for cytokine content; TNF-α content is shown, with result described as pg per ml per 1×10^6 cells per 24 hours. […]
# We reasoned that detection of autonomous secretion of inflammatory cytokines will have potential clinical implications, for example, in the monitoring of ALS disease response to investigational therapy. Towards this aim, we evaluated cytokine secretion in an ALS patient prior to and then after experimental therapy with the anti-TNF-α soluble recombinant receptor, etancercept (Enbrel®); there have been no reports of clinical trials evaluating etanercept therapy of ALS. […]
# [2] = system: T cell receptor repertoire; test: RNA-based T cell receptor repertoire sequencing of ALS patient PBMC pre- and post-etanercept therapy
# [3] = system: PBMC; test: CD40 ligand-driven cytokine secretion of PBMC (24 h culture, multiplex assay); assay type: cell-based; conditions: X-Vivo 20 media with 5% human serum
# Text: Given this possibility, we evaluated whether simple addition of the recombinant human (rhu) CD40L molecule might uncover autonomous inflammatory cytokine secretion in ALS patients. There are no reports in the literature to date pertaining to CD40L-stimulation of ALS patient PBMC. […] Therefore, the detection of the inflammatory subset of ALS can be expanded by inclusion of patients that secrete cytokines autonomously and those patients that secrete inflammatory cytokines after CD40L stimulation. Patient hypersensitivity to CD40 ligand is driven by an imbalance in the post-CD40 receptor signaling pathway, with increased TRAF6 contribution to the signaling cascade during neuro-inflammation; importantly, the TRAF2 and TRAF3 family members inhibit post-CD40 signaling. As such, given this information, our monitoring method will also include Western Blot analyses for the detection of ALS patient balance of the TRAF family of proteins.
# In FIG. 6, a sibling of a subject who was a carrier for the C9orf72 mutation was evaluated for autonomous cytokine secretion. […] This illustrates the importance of both neurologic and immunologic risk factors. […]
# [4] = individual clones, post- versus pre-etanercept
Molecule,autonomous secretion of IL-6 [1],autonomous secretion of TNF-α [1],"TCR clonality, Diversity Index (CHAOE) after therapy ([2]; ALS patient post-therapy, pre-therapy sample approximately 650,000, normal controls ~300,000)","reduction in TCR clonality in post-therapy sample ([2]; ALS patient, post- versus pre-therapy) [%]","T cell clonal contraction [2, 4]","T cell clonal expansion [2, 4]","post-treatment frequency of contracted T cell clones ([2]; several clones, pre-etanercept frequencies 259 to 598)",inflammatory cytokine production ([3]; PBMC from an ALS patient),cytokine secretion after stimulation with CD40L ([3]; PBMC from sibling of a C9orf72 mutation carrier)
etanercept,reduced,reduced,"approximately 599,000",~10,more than 4 log and ~4 log,more than 4 log and ~4 log,0.01,,
B1,,,,,,,,can induce inflammatory cytokine production,high levels of cytokine secretion
